# Results: patent publication US20070071688A1, “Pharmaceutical compositions for transdermal administration of anti-inflammatory agents” (sanofi-aventis, priority 2000, published 2007)
# Columns and labels:
# [1] = Saturation solubility of ibuprofen in components of the transdermal formulation (without matrix); format: physicochemical; settings: 30° C.
# Experimental: Comparative tests were carried out in order to determine the saturation solubility of ibuprofen in various components of the transdermal formulation of the invention in the absence of matrix, namely water, 2-ethylhexyl 2-ethylhexanoate as transcutaneous absorption promoter, referred to hereinbelow as “promoter”, and isopropanol as nonaqueous solvent.
# These various components were used alone or as homogeneous mixtures forming a clear solution, and the solubility measurements were performed at 30° C., after 24 hours of magnetic stirring and after filtration through a 0.22 μm filter.
# [2] = Preliminary trials on solubility of ibuprofen in various solvents or components; format: physicochemical
# Experimental: In the context of the present invention, preliminary trials were carried out directed essentially toward studying the solubility of ibuprofen in various solvents or components.
structure (smiles),measurement,setting,value
CC(C)Cc1ccc(C(C)C(=O)O)cc1 (centres unmarked) [Ibuprofen],Ibuprofen saturating concentration,"[1]; isopropanol 68.21 / promoter 31.79 % m/m, no water, 24 hours",403 mg/mL
same,Ibuprofen saturating concentration,"[1]; isopropanol 89.31 / promoter 10.69 % m/m, no water, 24 hours",424 mg/mL
same,Ibuprofen saturating concentration,"[1]; isopropanol 100% m/m, 24 hours magnetic stirring, 0.22 μm filtration",441 mg/mL
same,Ibuprofen saturating concentration,"[1]; promoter (2-ethylhexyl 2-ethylhexanoate) 100% m/m, 24 hours magnetic stirring, 0.22 μm filtration",192 mg/mL
same,solubility thermodynamic at 24 h,"[1]; thermodynamic from solid, water 100% m/m, 24 hours magnetic stirring, 0.22 μm filtration, read-out: Ibuprofen saturating concentration",69 µg/mL
same,Ibuprofen saturating concentration,"[1]; water 4.33 / isopropanol 85 / promoter 10.67 % m/m, 24 hours",451 mg/mL
same,Ibuprofen saturating concentration,"[1]; water 4.38 / isopropanol 68.16 / promoter 27.46 % m/m, 24 hours",431 mg/mL
same,Ibuprofen saturating concentration,"[1]; water 8.54 / isopropanol 68.23 / promoter 23.23 % m/m, 24 hours",436 mg/mL
same,Ibuprofen saturating concentration,"[1]; water 8.59 / isopropanol 80.7 / promoter 10.69 % m/m, 24 hours",448 mg/mL
same,solubility in water,[2],entirely water-insoluble
same,solubility in fatty acid ester/alcohol mixtures,[2]; 2-ethylhexyl 2-ethylhexanoate/ethanol or isopropanol mixtures,soluble
